Data: publication PMC3265250 (Chemotherapy Research and Practice, 2011)
Values after ≈ are worked out from the molar mass of the structure shown.

Experiments:
S. aureus ATCC 6538P = assay: MIC, microbroth dilution, referential strain ATCC 6538P; assay type: cell-based, Staphylococcus aureus; conditions: ATCC 6538P; microbroth dilution, MHB II, 5 × 10^5 CFU/mL, 18 h at 37°C, triplicate
Experimental: (§1) A total number of 24 SA strains were obtained from patients with erythrodermia and 3 reference SA ones from the American Type Culture Collection: 6538P ATCC, 9144 ATCC, and 25923 ATCC (Institute of Experimental Therapy, Wroclaw, Poland). […] Polypropylene 96-well plates (Sigma-Aldrich) were incubated for 18 h at 37°C. MIC was taken as the lowest drug concentration at which a noticeable growth was inhibited. […] The experiments were performed in triplicate.

S. aureus ATCC 25923 = assay: MIC, microbroth dilution, referential strain ATCC 25923; assay type: cell-based, Staphylococcus aureus; conditions: ATCC 25923; microbroth dilution, MHB II, 5 × 10^5 CFU/mL, 18 h at 37°C, triplicate
Experimental: as §1

[1] = test system: Superantigen positive S. aureus (14); conditions: for MIC 50% / MIC 90% / MIC Range / MBC Range: superantigen positive clinical isolates (14), triplicate; for MIC 50% / MIC 90% / MIC Range: microbroth dilution, MHB II, 5 × 10^5 CFU/mL, 18 h at 37°C; for MBC Range: more than 99.9% reduction of the initial inoculums
S. aureus ATCC 9144 = assay: MIC, microbroth dilution, referential strain ATCC 9144; assay type: cell-based, Staphylococcus aureus; conditions: ATCC 9144; microbroth dilution, MHB II, 5 × 10^5 CFU/mL, 18 h at 37°C, triplicate
clinical isolates of SA = conditions: 18 h
[2] = test system: Superantigen negative S. aureus (10); conditions: for MIC 50% / MIC 90% / MIC Range / MBC Range: superantigen negative clinical isolates (10), triplicate; for MIC 50% / MIC 90% / MIC Range: microbroth dilution, MHB II, 5 × 10^5 CFU/mL, 18 h at 37°C; for MBC Range: more than 99.9% reduction of the initial inoculums

Structure (SMILES) | MIC (S. aureus ATCC 6538P) [µg/mL] | MIC (S. aureus ATCC 25923) [µg/mL] | MBC 50% [1] [µg/mL] | MBC 90% [1] [µg/mL] | MIC 50% [1] [µg/mL] | MIC 90% [1] [µg/mL] | MIC Range [1] [µg/mL] | MBC Range [1] [µg/mL] | MIC (S. aureus ATCC 9144) [µg/mL] | MICs values (range) (clinical isolates of SA) [mg/L] | MBC 50% [2] [µg/mL] | MBC 90% [2] [µg/mL] | MIC 50% [2] [µg/mL] | MIC 90% [2] [µg/mL] | MIC Range [2] [µg/mL] | MBC Range [2] [µg/mL] | MIC values (range) (clinical isolates of SA) [µg/mL]
CCCCCCCCCC(=O)N[C@@H](Cc1c[nH]c2ccccc12)C(=O)N[C@H](CC(N)=O)C(=O)N[C@@H](CC(=O)O)C(=O)N[C@@H]1C(=O)NCC(=O)N[C@@H](CCCN)C(=O)N[C@@H](CC(=O)O)C(=O)N[C@H](C)C(=O)N[C@@H](CC(=O)O)C(=O)NCC(=O)N[C@H](CO)C(=O)N[C@@H]([C@H](C)CC(=O)O)C(=O)N[C@@H](CC(=O)c2ccccc2N)C(=O)O[C@@H]1C [Daptomycin, daptomycin] | 2 (≈ 1.23 µM) | 2 (≈ 1.23 µM) | 2 (≈ 1.23 µM) | 4 (≈ 2.47 µM) | 1 (≈ 0.617 µM) | 2 (≈ 1.23 µM) | 1 to 4 | 1 to 4 | 2 (≈ 1.23 µM) | 1 to 4 | 2 (≈ 1.23 µM) | 2 (≈ 1.23 µM) | 1 (≈ 0.617 µM) | 2 (≈ 1.23 µM) | 1 to 4 | 1 to 4 | 
CCCCCCCCCCCCCCCC(=O)N[C@@H](CCCCN)C(=O)N[C@@H](CCCCN)C(N)=O [Lipopeptide, Pal-KK-NH2] | 2 (≈ 3.91 µM) | 4 (≈ 7.82 µM) | 4 (≈ 7.82 µM) | 8 (≈ 15.6 µM) | 2 (≈ 3.91 µM) | 4 (≈ 7.82 µM) | 1 to 8 | 2 to 8 | 2 (≈ 3.91 µM) |  | 4 (≈ 7.82 µM) | 8 (≈ 15.6 µM) | 2 (≈ 3.91 µM) | 4 (≈ 7.82 µM) | 1 to 8 | 2 to 8 | 1 to 8
CC(C)C[C@H](NC(=O)[C@H](CCCNC(=N)N)NC(=O)CNC(=O)CNC(=O)[C@@H](N)CCCNC(=N)N)C(=O)N[C@H]1CSSC[C@@H](C(=O)N[C@H](C(=O)NCC(=O)N[C@@H](CCCNC(=N)N)C(N)=O)C(C)C)NC(=O)[C@H](C(C)C)NC(=O)[C@@H]2CSSC[C@H](NC(=O)[C@H](Cc3ccc(O)cc3)NC1=O)C(=O)N[C@@H](CCCNC(=N)N)C(=O)N[C@@H](CCCNC(=N)N)C(=O)N[C@@H](CCCNC(=N)N)C(=O)N[C@@H](Cc1ccccc1)C(=O)N2 [Protegrin 1, protegrin 1] | 4 (≈ 1.86 µM) | 4 (≈ 1.86 µM) | 4 (≈ 1.86 µM) | 8 (≈ 3.71 µM) | 2 (≈ 0.928 µM) | 4 (≈ 1.86 µM) | 1 to 4 | 2 to 8 | 2 (≈ 0.928 µM) |  | 4 (≈ 1.86 µM) | 8 (≈ 3.71 µM) | 2 (≈ 0.928 µM) | 4 (≈ 1.86 µM) | 1 to 4 | 2 to 8 | 1 to 8
